Results reported in US12364709B2, “Bioavailable poly amines” (AMINEX THERAPEUTICS, INC., priority 2016, dated 2025).

Experiments:
[1] = Pharmacokinetic analysis of AMXT 1501 salt forms, single oral tablet dose; format: in vivo, beagle dogs
Description: Following dose administration all the animals had serial blood collections. Table 18 provides pharmacokinetic data obtained using the various salt forms of AMXT 1501 following single PO dosing to dogs. In Table 18, Group 1 received the free base form of AMXT 1501, Group 2 received the dicholate salt of AMXT 1501, Group 3 received the phosphate salt form of AMXT 1501, and Group 4 received the dicaprate salt form of AMXT 1501. […] In Table 18, SD refers to standard deviation and CV % refers to coefficient of variability.

[2] = cited from earlier work
[3] = cited from earlier work; remark: listed apart in the source
[4] = 3 h intravenous infusions; cited from earlier work
[5] = single PO dose 16.0 mg/kg (2 x 80 mg tablets), plasma AMXT 1501
[6] = single PO dose 16.0 mg/kg (2 x 80 mg tablets), plasma AMXT 1501, 16 mg/kg
[7] = single PO dose 16.0 mg/kg, plasma AMXT 1501, 16 mg/kg
[8] = single PO dose 16.0 mg/kg, t=24 hours, plasma AMXT 1501, 16 mg/kg

SMILES: CCCCCCCCCCCCCCCC(=O)NCCCC[C@@H](N)C(=O)NCCCNCCCCNCCCN [AMXT 1501 free base]
- Tmax Median [1, 5]: 6.00 h
- Tmax Min. [1, 5]: 6.00 h
- Cmax Max. [1, 6]: 468 ng/mL
- Cmax Mean [1, 6]: 250 ng/mL
- Cmax Median [1, 6]: 250 ng/mL
- Cmax Min. [1, 6]: 31.3 ng/mL
- Tmax Max. [1, 6]: 12.0 h
- Tmax Mean [1, 6]: 8.00 h
- t1/2 Max. [1, 7]: 9.76 h
- t1/2 Mean [1, 7]: 9.76 h
- t1/2 Median [1, 7]: 9.76 h
- t1/2 Min. [1, 7]: 9.76 h
- AUC0-t Max. [1, 8]: 8450 ng·h/mL
- AUC0-t Mean [1, 8]: 4710 ng·h/mL
- AUC0-t Median [1, 8]: 5330 ng·h/mL
- AUC0-t Min. [1, 8]: 363 ng·h/mL
- inter-animal consistency of plasma AMXT 1501 levels ([1]; single oral delivery, FIGS. 5A-5D): variable drug levels

SMILES: CCNCCCCNCCCCNCCCCNCC [DEHSpm, N1,N14-diethylhomospermine]
- drug in plasma ([2]; 2-4 hrs. post-injection): not observed
- objective response ([2]; solid tumor patients): None of the 15 patients

SMILES: c1cc(CN2CCCNCCNCCCNCC2)ccc1CN1CCCNCCNCCCNCC1 [Mozobil]
- clearance by ([3]; subcutaneous 40-360 μg/kg, healthy volunteers): ≤ 10 h
- Plasma half-life ([3]; subcutaneous): 3 h

SMILES: N=C(N)NCCCCCCC(=O)NC(O)C(=O)NCCCCNCCCN (stereo not shown) [deoxyspergualin]
- half-life [4]: 1.8 h
